Measurements from patent publication US7632829B2, “Diazepan derivatives” (Hoffmann-La Roche Inc., priority 2006, dated 2009).

Biological target: T1, human chemokine receptor 2 isoform B (Homo sapiens, UniProt P41597)
T1 construct: host or cells: CHOK1-CCR2B-A5 (CHO-K1)
T1 sequence (P41597 1-360 isoform P41597-2): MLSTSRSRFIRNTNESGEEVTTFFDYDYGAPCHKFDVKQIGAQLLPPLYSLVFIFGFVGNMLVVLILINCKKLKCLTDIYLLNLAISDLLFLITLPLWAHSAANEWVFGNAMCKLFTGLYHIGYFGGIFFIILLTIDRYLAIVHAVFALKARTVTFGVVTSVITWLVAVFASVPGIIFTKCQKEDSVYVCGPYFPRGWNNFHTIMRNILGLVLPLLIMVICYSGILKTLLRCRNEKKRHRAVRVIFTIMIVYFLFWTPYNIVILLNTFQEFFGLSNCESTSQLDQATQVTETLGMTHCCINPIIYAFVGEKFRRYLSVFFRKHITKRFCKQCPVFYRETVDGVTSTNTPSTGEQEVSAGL
Assay: Calcium mobilization assay (FLIPR, CHOK1-CCR2B-A5 cells, 20 nM MCP-1)
Type: cell-based
Details: Ca mobilisation assay, CCR2, antagonist activity vs 20 nM MCP-1
Method in brief: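 Antagonism read as IC50 against 20 nM MCP-1-evoked calcium rise (peak minus baseline Fluo-4 signal, FLIPR) in CCR2B-overexpressing CHO-K1 cells. Compounds were preincubated 20-30 min at 30 °C, with agonist activity recorded for 80 s on addition.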

Compound	IC50
COC(=O)N(C)C1CCN(CCCCN2CCN(C(=O)/C=C/c3ccc(F)c(Cl)c3)CCC2=O)CC1 [Example 402]	0.291 µM
C[C@@]1(CO)CCN(CCCN2CCN(C(=O)/C=C/c3ccc(F)c(Cl)c3)CCC2=O)C[C@H]1O (racemic) [Example 220]	0.169 µM
CC1(CO)CCCN1CC(O)CCN1CCN(C(=O)/C=C/c2ccc(Cl)c(Cl)c2)CCC1=O (racemic) [Example 381]	0.236 µM
O=C(/C=C/c1ccc(Cl)c(Cl)c1)N1CCC(=O)N(CCCN2CC(O)CCC2CO)CC1 (racemic) [Example 273]	0.313 µM
O=C(C=Cc1ccc(F)c(Cl)c1)N1CCC(=O)N(CCCN2CCC(F)C(O)C2)CC1 (mixture of isomers) [Example 213, (rac,trans)-1-[(E)-3-(3-Chloro-4-fluoro-phenyl)-acryloyl]-4-[3-(4-fluoro-3-hydroxy-piperidin-1-yl)-propyl]-[1,4]diazepan-5-one]	0.421 µM
COCC1CCCN(CC(O)CCN2CCN(C(=O)/C=C/c3ccc(Cl)c(Cl)c3)CCC2=O)C1 (racemic) [Example 361]	0.226 µM
O=C(/C=C/c1ccc(Cl)c(Cl)c1)N1CCC(=O)N(CCCN2CCC[C@H]2CO)CC1 [Example 47, (S)-1-[(E)-3-(3,4-Dichloro-phenyl)-acryloyl]-4-[3-(2-hydroxymethyl-pyrrolidin-1-yl)-propyl]-[1,4]diazepan-5-one]	0.193 µM
CC(C)CN1CCN(CCCCN2CCN(C(=O)/C=C/c3ccc(Cl)c(Cl)c3)CCC2=O)CC1 [Example 465]	0.376 µM
O=C(/C=C/c1ccc(Cl)c(Cl)c1)N1CCC(=O)N(C(CO)CCCN2CCCCC2)CC1 (racemic) [Example 181, (rac)-1-[(E)-3-(3,4-Dichloro-phenyl)-acryloyl]-4-(1-hydroxymethyl-4-piperidin-1-yl-butyl)-[1,4]diazepan-5-one]	0.003 µM
CC1(CO)CCN(CCCN2CCN(C(=O)/C=C/c3ccc(Cl)c(Cl)c3)CCC2=O)CC1 [Example 254]	0.108 µM
CC1CCN(CCCN2CCN(C(=O)C=Cc3ccc(Cl)c(Cl)c3)CCC2=O)CC1O (single isomer, unassigned) [Example 260, 1-[(E)-3-(3,4-Dichloro-phenyl)-acryloyl]-4-[3-((−, cis)-3-hydroxy-4-methyl-piperidin-1-yl)-propyl]-[1,4]diazepan-5-one]	0.009 µM
O=C(/C=C/c1ccc(Cl)c(Cl)c1)N1CCC(=O)N(CCN2CCC(O)(c3cccnc3)CC2)CC1 [Example 99, 1-[(E)-3-(3,4-Dichloro-phenyl)-acryloyl]-4-[3-(4′-hydroxy-3′,4′,5′,6′-tetrahydro-2′H-[3,4′]bipyridinyl-1′-yl)-ethyl]-[1,4]diazepan-5-one]	1.22 µM
O=C(/C=C/c1ccc(Cl)c(Cl)c1)N1CCC(=O)N(CCCN2CCC(N3CCNC3=O)CC2)CC1 [Example 56, 1-[(E)-3-(3,4-Dichloro-phenyl)-acryloyl]-4-{3-[4-(2-oxo-imidazolidin-1-yl)-piperidin-1-yl]-propyl}-[1,4]diazepan-5-one]	1.08 µM
COC1CCCN(CCCCN2CCN(C(=O)/C=C/c3ccc(F)c(Cl)c3)CCC2=O)C1 (racemic) [Example 395]	0.996 µM
O=C(/C=C/c1ccc(F)c(Cl)c1)N1CCC(=O)N(CCCN2CC[C@H](CO)[C@H](O)C2)CC1 (racemic) [Example 215]	0.356 µM
O=C(/C=C/c1ccc(Cl)c(Cl)c1)N1CCC(=O)N(CCCCN2CC(O)CCC2CO)CC1 (racemic) [Example 476]	0.018 µM
O=C(/C=C/c1cccc(Cl)c1)N1CCC(=O)N(CCN2CCC(c3cccc(Cl)c3)CC2)CC1 [Example 34, 1-[(E)-3-(3-Chloro-phenyl)-acryloyl]-4-{2-[4-(3-chloro-phenyl)-piperidin-1-yl]-ethyl}-[1,4]diazepan-5-one]	1.39 µM
O=C(/C=C/c1ccc(Cl)c(Cl)c1)N1CCC(=O)N(CC(O)CN2CC[C@@H](F)[C@H](O)C2)CC1 (mixture of isomers) [Example 284]	0.717 µM
C[C@@H]1CN(CCCCN2CCN(C(=O)/C=C/c3ccc(Cl)c(Cl)c3)CCC2=O)CC[C@H]1O (racemic) [Example 455, (rac)-1-[(E)-3-(3,4-Dichloro-phenyl)-acryloyl]-4-[4-(trans-4-hydroxy-3-methyl-piperidin-1-yl)-butyl]-[1,4]diazepan-5-one]	0.106 µM
COCC1(C)CCCN(CCCCN2CCN(C(=O)/C=C/c3ccc(Cl)c(Cl)c3)CCC2=O)C1 (racemic) [Example 446]	0.626 µM
C[C@@H]1CN(CCCCN2CCN(C(=O)/C=C/c3ccc(Cl)c(Cl)c3)CCC2=O)CC[C@@H]1O (racemic) [Example 458]	0.148 µM
O=C(/C=C/c1cccc(Cl)c1)N1CCC(=O)N(CCCN2CCC3(CC3)C(O)C2)CC1 (stereo not drawn) [Example 496, 1-[(E)-3-(3-Chloro-phenyl)-acryloyl]-4-[3-((-)-4-hydroxy-6-aza-spiro[2.5]oct-6-yl)-propyl]-[1,4]diazepan-5-one]	0.007 µM
C[C@]1(CO)CCN(CCCN2CCN(C(=O)/C=C/c3ccc(Cl)c(Cl)c3)CCC2=O)C[C@H]1O (racemic) [Example 270, (rac,cis)-1-[(E)-3-(3,4-Dichloro-phenyl)-acryloyl]-4-[3-(3-hydroxy-4-hydroxymethyl-4-methyl-piperidin-1-yl)-propyl]-[1,4]diazepan-5-one]	0.01 µM
O=C(C=Cc1ccc(Cl)c(Cl)c1)N1CCC(=O)N(CCNC2CCC(O)(c3ccccn3)CC2)CC1 (stereo not drawn) [Example 105, trans-1-[(E)-3-(3,4-Dichloro-phenyl)-acryloyl]-4-[3-(4-hydroxy-4-pyridin-2-yl-cyclohexylamino)-ethyl]-[1,4]diazepan-5-one]	0.806 µM

The remaining compounds from weak to strong by IC50, led by results:

IC50	Compound
1.34 µM	O=C(/C=C/c1cccc(Cl)c1)N1CCC(=O)N(CCCN2CCCCC2)CC1 [Example 188, 1-[(E)-3-(3-Chloro-phenyl)-acryloyl]-4-(3-piperidin-1-yl-propyl)-[1,4]diazepan-5-one]
1.2 µM	O=C(/C=C/c1ccc(Cl)c(Cl)c1)N1CCC(=O)N(CCNC2CCCC2)CC1 [Example 108, 4-[3-(Cyclopentyl-amino)-ethyl]-1-[(E)-3-(3,4-dichloro-phenyl)-acryloyl]-[1,4]diazepan-5-one]
0.954 µM	O=C(/C=C/c1ccc(F)c(F)c1)N1CCC(=O)N(CC(O)CN2CCCCC2)CC1 (racemic) [Example 177, (rac)-1-[(E)-3-(3,4-Difluoro-phenyl)-acryloyl]-4-(2-hydroxy-3-piperidin-1-yl-propyl)-[1,4]diazepan-5-one]
0.682 µM	COCC1CN(CCCCN2CCN(C(=O)/C=C/c3ccc(Cl)c(Cl)c3)CCC2=O)CCC1O (racemic) [Example 451]
0.667 µM	CC1CCC(N(C)CCN2CCN(C(=O)/C=C/c3ccc(Cl)c(Cl)c3)CCC2=O)CC1 (mixture of isomers) [Example 124, cis/trans-1-[(E)-3-(3,4-Dichloro-phenyl)-acryloyl]-4-{3-[methyl-(4-methyl-cyclohexyl)-amino]-ethyl}-[1,4]diazepan-5-one]
0.592 µM	O=C(C=Cc1ccc(F)c(Cl)c1)N1CCC(=O)N(CCCN2CCC(O)C(F)C2)CC1 (mixture of isomers) [Example 214, (rac,trans)-1-[(E)-3-(3-Chloro-4-fluoro-phenyl)-acryloyl]-4-[3-(3-fluoro-4-hydroxy-piperidin-1-yl)-propyl]-[1,4]diazepan-5-one]
0.551 µM	O=C(/C=C/c1ccc(F)c(Cl)c1)N1CCC(=O)N(CCCCN2CC[C@@H](O)[C@H](F)C2)CC1 (racemic) [Example 394]
0.453 µM	O=C1NCC2(CCN(CCCN3CCN(C(=O)/C=C/c4ccc(F)c(Cl)c4)CCC3=O)CC2)O1 [Example 195]
0.343 µM	O=C(/C=C/c1cccc(Cl)c1)N1CCC(=O)N(CCN2CCC(c3ccc(F)cc3)CC2)CC1 [Example 33, 1-[(E)-3-(3-Chloro-phenyl)-acryloyl]-4-[3-(4-(4-fluoro-phenyl)-piperidin-1-yl)-ethyl]-[1,4]diazepan-5-one]
0.335 µM	4-[3-(Cyclohexy-methyl-amino)-ethyl]-1-[(E)-3-(3,4-dichloro-phenyl)-acryloyl]-[1,4]diazepan-5-one [Example 111]
0.257 µM	CC1(O)CCCN(CC(O)CN2CCN(C(=O)/C=C/c3ccc(Cl)c(Cl)c3)CCC2=O)C1 (racemic) [Example 303]
0.25 µM	O=C(/C=C/c1ccc(Cl)c(F)c1)N1CCC(=O)N(CCCCN2CCC[C@H](O)[C@@H]2CO)CC1 (racemic) [Example 419]
0.215 µM	O=C(/C=C/c1ccc(Cl)c(Cl)c1)N1CCC(=O)N(CCCN2CC[C@@H](F)[C@H](O)C2)CC1 (racemic) [Example 230, (rac,trans)-1-[(E)-3-(3,4-Dichloro-phenyl)-acryloyl]-4-[3-(4-fluoro-3-hydroxy-piperidin-1-yl)-propyl]-[1,4]diazepan-5-one]
0.175 µM	O=C(/C=C/c1ccc(Cl)c(Cl)c1)N1CCC(=O)N(CCCN2CCC(F)CC2)CC1 [Example 74, 1-[(E)-3-(3,4-Dichloro-phenyl)-acryloyl]-4-[3-(4-fluoro-piperidin-1-yl)-propyl]-[1,4]diazepan-5-one]
0.059 µM	CC1(CO)CCN(CC(O)CN2CCN(C(=O)C=Cc3ccc(Cl)c(Cl)c3)CCC2=O)CC1O (single isomer, unassigned) [Example 331]
0.011 µM	CC1(C)CCN(C[C@H](O)CN2CCN(C(=O)/C=C/c3ccc(F)c(Cl)c3)CCC2=O)CC1O (stereo partly drawn) [Example 343, 1-[(E)-3-(3-Chloro-4-fluoro-phenyl)-acryloyl]-4-[(S)-2-hydroxy-3-(3-hydroxy-4,4-dimethyl-piperidin-1-yl)-propyl]-[1,4]diazepan-5-one]
